Measurements: patent US12263248B2, “Compounds and compositions for intracellular delivery of therapeutic agents” (ModernaTX, Inc., priority 2018, dated 2025)

Experiments:
[1] = Particle size and polydispersity index of nanoparticle compositions (Zetasizer Nano ZS); format: physicochemical; conditions: Table 1A; for Size (nm): lipid:DSPC:cholesterol:PEG-DMG 50:10:38.5:1.5 mol %
Procedure: A Zetasizer Nano ZS (Malvern Instruments Ltd, Malvern, Worcestershire, UK) can be used to determine the particle size, the polydispersity index (PDI) and the zeta potential of the nanoparticle compositions in 1×PBS in determining particle size and 15 mM PBS in determining zeta potential.

[2] = Encapsulation efficiency of RNA (QUANT-IT RIBOGREEN RNA assay); format: physicochemical; conditions: Table 1A
Procedure: For nanoparticle compositions including an RNA, a QUANT-IT™ RIBOGREEN® RNA assay (Invitrogen Corporation Carlsbad, CA) can be used to evaluate the encapsulation of an RNA by the nanoparticle composition. The samples are diluted to a concentration of approximately […] in a TE buffer solution (10 mM Tris-HCl, 1 mM EDTA, pH 7.5). 50 μL of the diluted samples are transferred to a polystyrene 96 well plate and either 50 μL of TE buffer or 50 μL of a 2% Triton X-100 solution is added to the wells. The plate is incubated at a temperature of 37° C. for 15 minutes. The RIBOGREEN® reagent is diluted 1:100 in TE buffer, and 100 μL of this solution is added to each well. The fluorescence intensity can be measured using a fluorescence plate reader (Wallac Victor 1420 Multilabel Counter; Perkin Elmer, Waltham, MA) at an excitation wavelength of, for example, about 480 nm and an emission wavelength of, for example, about 520 nm. The fluorescence values of the reagent blank are subtracted from that of each of the samples and the percentage of free RNA is determined by dividing the fluorescence intensity of the intact sample (without addition of Triton X-100) by the fluorescence value of the disrupted sample (caused by the addition of Triton X-100).

[3] = Apparent (surface) pKa of the LNP formulation (TNS assay); format: physicochemical; conditions: Table 1A
Procedure: Using sodium hydroxide (1 M) and hydrochloric acid (1 M), 21 unique buffers were prepared from the master buffer stock at pH values between about 3 and 12. Next, a stock of 300 μM 6-(p-Toluidino)-2-naphthalenesulfonic acid sodium salt (TNS reagent) in DMSO was prepared and the LNP was mixed with the desired formulation buffer at a concentration of 0.04 mg/mL mRNA. This assay has been validated in 1× PBS and 20 mM Tris w/8% sucrose buffer. The buffer solutions at various pH values were added to a 96-well plate in triplicate for each pH. To each well was added 3.26 μL of LNP sample at a mRNA concentration of 0.04 mg/mL and 2.0 μL of 300 μM TNS reagent solution. After careful mixing, the resulting fluorescence values were read for each plate to create a sigmoidal plot of the fluorescence values vs. buffer pH. The […] inflection point of this curve is the apparent pKa of the LNP formulation.

luciferase (Luc) mRNA [4] = assay: Luc expression, whole body bioluminescence after intravenous administration to mice; format: in vivo; conditions: for Fold increase in total body Luc Flux relative to MC3 at 6 h: Table 3A; for Total Flux 3 hours / Total Flux 6 hours / Total Flux 24 hours: Luc mRNA
Procedure: In order to monitor how effectively various nanoparticle compositions deliver therapeutic and/or prophylactics to targeted cells, different nanoparticle compositions including a particular therapeutic and/or prophylactic (for example, a modified or naturally occurring RNA such as an mRNA) are prepared and administered to rodent populations. Mice are intravenously, intramuscularly, intraarterially, or intratumorally administered a single dose including a nanoparticle composition with a formulation such as those provided in Example 3. In some instances, mice may be made to inhale doses. Dose sizes may range from 0.001 mg/kg to 10 mg/kg, where 10 mg/kg describes a dose including 10 mg of a therapeutic and/or prophylactic in a nanoparticle composition for each 1 kg of body mass of the mouse. A control composition including PBS may also be employed.
Upon administration of nanoparticle compositions to mice, dose delivery profiles, dose responses, and toxicity of particular formulations and doses thereof can be measured by enzyme-linked immunosorbent assays (ELISA), bioluminescent imaging, or other methods. For nanoparticle compositions including mRNA, time courses of protein expression can also be evaluated. Samples collected from the rodents for evaluation may include blood, sera, and tissue (for example, muscle tissue from the site of an intramuscular injection and internal tissue); sample collection may involve sacrifice of the animals.
The efficacy of the nanoparticle compositions presented in Table 1A was evaluated with a bioluminescence study. Formulations were administered intravenously to mice (n=6) at a dosage of 0.5 mg/kg (mpk) and bioluminescence measured at 3, 6, and 24 hour time points. The standard MC3 formulation and, in some instances, a control (e.g., a PBS control) were evaluated for comparison. […] In general, flux decreased as time progressed to less than 10% of the initial flux.
(§1) Whole body and ex vivo organ bioluminescent imaging of mice: CD-1 mice were injected 15 minutes prior to the imaging timepoint intraperitoneally (IP) with 200 μL Xenolight D-luciferin K+ salt, diluted in PBS just prior to use to a concentration of 15 mg/mL. Ex vivo imaging of organs was completed within 25 minutes of luciferin administration. All images were quantified by region of interest for total flux.

luciferase (Luc) mRNA [5] = assay: Luc expression in liver, lung, spleen and femur 6 hours after intravenous administration; format: in vivo; conditions: mice, 0.5 mpk; for Total Flux Liver / Total Flux Lung / Total Flux Spleen: intravenous
Procedure: The efficacy of the nanoparticle compositions presented in Table 1A was further evaluated by measuring the expression of modified luciferase in the liver, lung, spleen, and femur upon administration of a given composition. Formulations were administered intravenously to mice (n=3) at a dosage of 0.5 mpk and bioluminescence measured after 6 hours. The standard MC3 formulation and a PBS control were also tested. […] Flux in the liver was lowest for compositions including Compounds 58, 59, 137, and 141. Flux in the spleen was highest for compositions including Compounds 4, 7, 33, 34, 48, 53, 108, 129, 130, and 148, and lowest for compositions including Compounds 9, 59, 124, and 141.
as §1

SMILES | PDI [1] | Size (nm) [1] [nm] | EE (%) [2] [%] | pKa [3] | Fold increase in total body Luc Flux relative to MC3 at 6 h (luciferase (Luc) mRNA [4]; i.v. administration) | Total Flux 3 hours (luciferase (Luc) mRNA [4]; mice, i.v., 0.5 mg/kg) | Total Flux 6 hours (luciferase (Luc) mRNA [4]; mice, i.v., 0.5 mg/kg) | Total Flux 24 hours (luciferase (Luc) mRNA [4]; mice, i.v., 0.5 mg/kg) | Total Flux Liver (luciferase (Luc) mRNA [5]) | Total Flux Lung (luciferase (Luc) mRNA [5]) | Total Flux Spleen (luciferase (Luc) mRNA [5]) | flux at all timepoints measured (luciferase (Luc) mRNA [4]; mice, i.v., 0.5 mg/kg, 3, 6 and 24 hour, in words) | Flux in the liver (luciferase (Luc) mRNA [5]; i.v., in words) | Flux in the spleen (luciferase (Luc) mRNA [5]; i.v., in words) | 6 h Lipid/MC3 Avg. Luc Expression (luciferase (Luc) mRNA [4]; Table 3C, i.v. administration) | Fold increase AUC Lipid/MC3 (luciferase (Luc) mRNA [4]; Table 3C, i.v. administration) | AUC (h * p/s) (luciferase (Luc) mRNA [4]; Table 3C, i.v. administration, Luc) | total flux at 3 hours (luciferase (Luc) mRNA [4]; mice, i.v., 0.5 mg/kg, comparison in words)
CCCCCCCC/C=C\CCCCCCCCN(CCO)CCCCCCCC(=O)OC(CCCCCCCC)CCCCCCCC [Compound 31, heptadecan-9-yl (Z)-8-((2-hydroxyethyl)(octadec-9-en-1-yl)amino) octanoate] | 0.15 | 73.9 | 95.11 | 6.64 | 1.21 | 4.19E+10 | 5.31E+10 | 1.68E+09 | 5.17E+09 | 7.55E+06 | 9.42E+07 |  |  |  |  |  |  | 
CCCCCCCCCOC(=O)CCCCCCCN(CCO)CCCCCCCC(=O)OC(CC)CC [Compound 59, nonyl 8-((2-hydroxyethyl)(8-oxo-8-(pentan-3-yloxy)octyl)amino) octanoate] | 0.24 | 237.0 | 94.44 |  | 0.00003 | 2.75E+05 | 2.79E+05 | 1.45E+05 | 2.87E+05 | 4.41E+04 | 9.68E+04 | significantly lower flux | lowest | lowest |  |  |  | 
CCCCCCCCC(CCCCCCCC)OC(=O)CCCCCCCN(CCO)CCCCCCCC(=O)OC1CCC(CCCCC)CC1 (stereo not shown) [Compound 66, Heptadecan-9-yl 8-((2-hydroxyethyl)(8-oxo-8-((4-pentylcyclohexyl)oxy)octyl)amino)octanoate] | 0.120 | 76.7 | 96.52 |  | 0.103 | 9.66E+10 | 4.577E+10 | 5.56E+09 | 5.01E+09 | 4.20E+06 | 2.00E+07 |  |  |  | 6.28 | 8.20 | 6.76E+11 | highest
CCCCCCCCCOC(=O)CCCCCCCN(CCCCCCCC(=O)OC(CCCCCCCC)CCCCCCCC)Cc1ccccc1 [Compound 94, Heptadecan-9-yl 8-(benzyl(8-(nonyloxy)-8-oxooctyl)amino)octanoate] | 0.24 | 62.4 | 0 | 4.43 |  |  |  |  |  |  |  |  |  |  |  |  |  | 
CCCCCCCCCOC(=O)CCCCCCCN(CCCCCCCC(=O)OC(CCCCCCCC)CCCCCCCC)CCCC(F)(F)F [Compound 107] | 0.74 | 55 | 0 | 4.802 |  |  |  |  |  |  |  |  |  |  |  |  |  | 
CCCCCCCCCOC(=O)CCCCCCCN(CCCCCCCC(=O)OC(CCCCCCCC)CCCCCCCC)CCCn1cnc2c(N)ncnc21 [Compound 116, Heptadecan-9-yl 8-((3-(6-amino-9H-purin-9-yl)propyl)(8-(nonyloxy)-8-oxooctyl)amino)octanoate] | 0.14 | 63.3 | 99.4 | 5.66 |  | 3.13E+07 | 3.86E+07 |  |  |  |  |  |  |  |  |  |  | 
CCCCCCCCCOC(=O)CCCCCCCN(CCO)CCCCCCCC(=O)Oc1ccc(CCCCC)cc1 [Compound 119, Nonyl 8-((2-hydroxyethyl)(8-oxo-8-(4-pentylphenoxy)octyl)amino)octanoate] | 0.24 | 60.8 | 98.1 | 5.29 |  | 1.02E+07 | 3.74E+07 |  |  |  |  |  |  |  |  |  |  | 
CCCCCCCCCOC(=O)CCCCCCCN(CCCCCCCC(=O)OC(CCCCCCCC)CCCCCCCC)CCCn1ccnn1 [Compound 179, Heptadecan-9-yl 8-((3-(1H-1,2,3-triazol-1-yl)propyl)(8-(nonyloxy)-8-oxooctyl)amino)octanoate] | 0.11 | 71.6 | 94.7 | 6.16 |  |  |  |  |  |  |  |  |  |  |  |  |  | 
CCCCCCCCCOC(=O)CCCCCCCN(CCCCCCCC(=O)OC(CCCCCCCC)CCCCCCCC)CCCNC(=O)OC [Compound 181, Heptadecan-9-yl 8-((3-((methoxycarbonyl)amino)propyl)(8-(nonyloxy)-8-oxooctyl)amino)octanoate] | 0.12 | 78.7 | 88.9 | 6.17 |  |  |  |  |  |  |  |  |  |  |  |  |  | 
CCCCCCCCCOC(=O)CCCCCCCN(CCCCCCCC(=O)OC(CCCCCCCC)CCCCCCCC)CCCNC(=O)CO [Compound 198, Heptadecan-9-yl 8-((3-(2-hydroxyacetamido)propyl)(8-(nonyloxy)-8-oxooctyl)amino)octanoate] | 0.24 | 84.2 | 99.5 | 7.62 |  |  |  |  |  |  |  |  |  |  |  |  |  | 
